Test results as given in patent US9862730B2, “Imidazothiadiazole derivatives as protease activated receptor 4 (PAR4) inhibitors for treating platelet aggregation” (BRISTOL-MYERS SQUIBB COMPANY, priority 2012, dated 2018).

Experiments:
[1] = molecular target: T1, PAR4 (Homo sapiens (Human), UniProt Q96RI0); assay: Gamma thrombin induced platelet aggregation assay in PRP (PRP assay); assay type: cell-based
Source text: The compounds of the current invention can be tested in vitro for their ability to inhibit platelet aggregation induced by gamma-thrombin as shown in Example C. Gamma-thrombin, a proteolytic product of alpha-thrombin which no longer interacts with PAR1, selectively cleaves and activates PAR4 (Soslau, G. et al., “Unique pathway of thrombin-induced platelet aggregation mediated by glycoprotein Ib”, J. Biol. Chem., 276:21173-21183 (2001)). Platelet aggregation can be monitored in a 96-well microplate aggregation assay format or using standard platelet aggregometer. The aggregation assay can also be employed to test the selectivity of the compound for inhibiting platelet aggregation induced by PAR4 agonist peptides, PAR1 agonist peptide, ADP, or thromboxane analogue U46619.
The platelet rich plasma was isolated by centrifugation at 170 g for 14 minutes.
The ability of the compounds of the current invention to inhibit platelet aggregation induced by gamma-thrombin was tested in a 96-well microplate aggregation assay format. Briefly, PRP or washed platelet suspension (100 μl) was pre-incubated for 5 minutes at room temperature with varying concentrations of compounds. Aggregation was initiated by ˜10-50 nM gamma thrombin (Haematologic Technologies, Essex Junction, Vt.), which was titrated daily to achieve 80% platelet aggregation. Refludan at 1 U/mL (Berlex, Montville, N.J.) was added to the gamma thrombin sample to prevent PAR1 activation induced by residual alpha-thrombin contamination. The plate was then placed into a 37° C. Molecular Devices (Sunnyvale, Calif.) SPECTRAMAX® Plus Plate Reader. […] Data was collected with SOFTMAX® 4.71 software. The plate also included an untreated control sample which served as ODmax, while buffer containing no platelets was the ODmin. Platelet aggregation was determined by subtracting the ODmax from the ODmin for the 100% aggregation value. In experimental samples, the observed transmission was subtracted from the minimum value and then compared to the 100% aggregation value to determine the percentage aggregation. IC50 values are determined using Excel Fit software.
As indicated above, the PRP assay, an in vitro assay, measures the PAR4 antagonist activity of compounds tested as described in Example C.

[2] = molecular target: T1, PAR4; assay: FLIPR assay in PAR4-expressing HEK293 cells (PAR4 antagonist activity, calcium mobilization); assay type: cell-based; settings: FLIPR assay as described in Example A
How it was run: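 HEK293 cells stably expressing human PAR4 (also endogenous PAR1) in HBSS/10 mM HEPES, 0.67% DMSO final. Compound added and read for agonist activity, then 30 min room temperature before PAR4 agonist peptide; intracellular calcium mobilization monitored by FDSS/FLIPR.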

T1 sequence (Q96RI0 18-385): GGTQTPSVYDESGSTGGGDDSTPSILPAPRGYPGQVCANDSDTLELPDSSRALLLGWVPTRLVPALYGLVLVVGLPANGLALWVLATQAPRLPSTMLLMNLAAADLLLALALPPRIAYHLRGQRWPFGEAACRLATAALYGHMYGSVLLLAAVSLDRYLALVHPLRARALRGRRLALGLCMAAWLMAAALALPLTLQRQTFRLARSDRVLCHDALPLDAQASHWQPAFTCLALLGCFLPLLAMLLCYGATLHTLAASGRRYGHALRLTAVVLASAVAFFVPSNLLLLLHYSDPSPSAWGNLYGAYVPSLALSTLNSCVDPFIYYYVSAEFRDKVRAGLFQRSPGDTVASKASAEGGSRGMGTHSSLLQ

Row | IC50 [1] | IC50 [2] | Compound
1 | > 30000 nM | 55.6 nM | COc1cc(OCc2ccc(F)cc2)c2cc(-c3cn4nc(C(C)(F)F)sc4n3)oc2c1 [Example 304]
2 | 566 nM | 4.56 nM | CCOc1cc(OCc2cccc(OCc3ccccc3)c2)c2cc(-c3cn4nc(OC)sc4n3)oc2c1 [Example 426]
3 | 2500 nM | 7.63 nM | COc1cc(COc2cccc(COc3cc(OC)cc4oc(-c5cn6nc(OC)sc6n5)cc34)c2)cc(OCc2ccccc2)c1 [Example 373]
4 | 2960 nM | 23 nM | COc1cc(OCc2ccc(F)cc2)c2cc(-c3cn4nc(SC)sc4n3)oc2c1 [Example 301]
5 | 10.5 nM | 2.25 nM | COc1cc(OCc2cccc(OCc3cccc(OC)c3OC)c2)c2cc(-c3cn4nc(OC)sc4n3)oc2c1 [Example 353]
6 | 86.2 nM | 1.64 nM | COc1cc(OCc2cccc(OCc3ccc(F)c(F)c3F)c2)c2cc(-c3cn4nc(OC)sc4n3)oc2c1 [Example 325]
7 | 151 nM | 6.2 nM | COc1cc(OCc2cc(Cl)cc(OCc3ccccc3)c2)c2cc(-c3cn4nc(OC)sc4n3)oc2c1 [Example 402]
8 | 9160 nM | 15.4 nM | COc1ccc2nc(-c3cn4nc(OC)sc4n3)oc2c1 [Example 164]
9 | > 30000 nM | 401 nM | CSc1nn2cc(-c3nc4c(OC[C@@H]5CCCN5C(=O)[C@H](NC(=O)c5ccccc5)c5ccccc5)cccc4o3)nc2s1 [Example 337, N—((R)-2-((S)-2-(((2-(2-(Methylthio)imidazo[2,1-b][1,3,4]thiadiazol-6-yl)benzo[d]oxazol-4-yl)oxy)methyl)pyrrolidin-1-yl)-2-oxo-1-phenylethyl)benzamide]
10 | 5630 nM | 49.6 nM | COc1ccc(Br)c2cc(-c3cn4nc(SC)sc4n3)oc12 [Example 282]
11 | > 30000 nM | 113 nM | COc1nn2cc(-c3cc4c(OCc5ccccc5)cc(OCc5ccccc5)cc4o3)nc2s1 [Example 255]
12 | 544 nM | 4.69 nM | COc1cc(OCc2cccc(OCc3ccccc3)c2)c2cc(-c3cn4nc(Cl)sc4n3)oc2c1 [Example 405]
13 | 594 nM | 8.68 nM | COc1cc(OCc2cccc(OCc3cccc(OCc4ccccc4)c3)c2)c2cc(-c3cn4nc(OC)sc4n3)oc2c1 [Example 383]
14 | > 30000 nM | 66.6 nM | CCc1nn2cc(-c3nc4cc(F)c(F)cc4o3)nc2s1 [Example 38]
15 | > 30000 nM | 369 nM | COc1ccc2oc(-c3cn4nc(SC)sc4n3)cc2c1 [Example 16]
16 | > 30000 nM | 107 nM | CCC(C)(C)c1ccc2oc(-c3cn4nc(SC)sc4n3)nc2c1 [Example 131]
17 | 3270 nM | 513 nM | COc1nn2cc(-c3cc4c(OCc5cccc(OCc6ccccc6)c5)cc(OC)c(Cl)c4o3)nc2s1 [Example 415, 6-(4-((3-(Benzyloxy)benzyl)oxy)-7-chloro-6-methoxybenzofuran-2-yl)-2-methoxyimidazo[2,1-b][1,3,4]thiadiazole]
18 | 2330 nM | 3.91 nM | COc1cc(OC)c2c(C)c(-c3cn4nc(OC)sc4n3)oc2c1 [Example 72]
19 | > 30000 nM | 1780 nM | CCOc1nn2cc(-c3nc4ccccc4s3)nc2s1 [Example 27]
20 | 66.2 nM | 2.14 nM | COc1cc(OCc2cccc(OCc3cccnc3)c2)c2cc(-c3cn4nc(OC)sc4n3)oc2c1 [Example 398]

Row | IC50 [1] | IC50 [2] | Compound
21 | > 30000 nM | 1660 nM | COc1nn2cc(-c3oc4c(OC)c(OC)ccc4c3C)nc2s1 [Example 36]
22 | 616 nM | 3.68 nM | COc1cc(OCc2cccc(OCc3ccc(OC(F)(F)F)cc3)c2)c2cc(-c3cn4nc(OC)sc4n3)oc2c1 [Example 394]
23 | > 30000 nM | 28.4 nM | CSc1nn2cc(-c3nc4c(OC(C)C)cccc4o3)nc2s1 [Example 159]
24 | 2400 nM | 41.5 nM | COc1nn2cc(-c3cc4c(OCc5cccc(OCc6cccc(C)c6)c5)c(Cc5ccccc5)c(OC)cc4o3)nc2s1 [Example 387]
25 | 3080 nM | 2.26 nM | CCOc1nn2cc(-c3cc4c(OCc5cccc(OCc6ccccc6)c5)cc(OC)cc4o3)nc2s1 [Example 348]
26 | 93.3 nM | 4.17 nM | COc1cc(OCc2cccc(OCc3cccc(C(F)(F)F)c3F)c2)c2cc(-c3cn4nc(OC)sc4n3)oc2c1 [Example 316]
27 | 55 nM | 1.77 nM | COc1cc(OCc2cccc(OCc3cccc(C)c3)c2)c2cc(-c3cn4nc(OC)sc4n3)oc2c1 [Example 386]
28 | > 30000 nM | 575 nM | CCc1nn2cc(-c3nc4cc(C(C)(C)C)ccc4o3)nc2s1 [Example 57]
29 | 4.95 nM | 0.59 nM | COc1cc(OCc2cccc(OCc3csc(C)n3)c2)c2cc(-c3cn4nc(OC)sc4n3)oc2c1 [Example 399]
30 | 568 nM | 5.05 nM | COc1cc(OCc2cccc(OCc3cccc(Oc4ccccc4)c3)c2)c2cc(-c3cn4nc(OC)sc4n3)oc2c1 [Example 384]
31 | > 30000 nM | 114 nM | CSc1nn2cc(-c3cc4c(OCc5ccccc5)cc(OCc5ccccc5)cc4o3)nc2s1 [Example 253]
32 | 16700 nM | 55.3 nM | Brc1nn2cc(-c3cc4ccccc4o3)nc2s1 [Example 68]
33 | 3410 nM | 2.27 nM | COc1cc(OCc2cccc(OCc3ccc(Oc4ccccc4)cc3)c2)c2cc(-c3cn4nc(OC)sc4n3)oc2c1 [Example 372]
34 | > 30000 nM | 79.9 nM | CSc1nn2cc(-c3nc4ccc(OC(C)C)cc4o3)nc2s1 [Example 161]
35 | 22.5 nM | 2.44 nM | COc1cc(COc2cc(OC)cc3oc(-c4cn5nc(OC)sc5n4)cc23)cc(OCc2ccccc2)c1 [Example 404]
36 | 75.5 nM | 3.93 nM | COc1cc(OCc2cccc(OCc3ccnc(Cl)c3)c2)c2cc(-c3cn4nc(OC)sc4n3)oc2c1 [Example 320]
37 | 5280 nM | 39.4 nM | CSc1nn2cc(-c3nc4c(OCc5cccc(OCc6ccccc6)c5)cccc4o3)nc2s1 [Example 173]
38 | 2500 nM | 35.9 nM | COc1cc(OCc2cccc(OCc3ccc(C(C)(C)C)cc3)c2)c2cc(-c3cn4nc(OC)sc4n3)oc2c1 [Example 393]
39 | 36.5 nM | 1.92 nM | COc1cc(OCc2cccc(OCc3ccccc3F)c2)c2cc(-c3cn4nc(OC)sc4n3)oc2c1 [Example 318]
